In patent KR20210106935A, “암의 예방 또는 치료용 조성물” (연세대학교 산학협력단, priority 2019, dated 2021):

Legend:
[1] = system: GSPO1 cells (Thyroid cancer; Papillary); experiment: Cell proliferation IC50 (MTT), patient-derived papillary thyroid cancer cells GSPO1 (second line of the same label); type: cell-based; settings: Homo sapiens, adult patient, by order of Table 3, PTC stage IV, mean ± SEM, read-out: cell proliferation IC50 - half maximal inhibitory concentration
[2] = system: GSPY2 cells (Thyroid cancer; Papillary); experiment: Cell proliferation IC50 (MTT), patient-derived papillary thyroid cancer cells GSPY2; type: cell-based; settings: Homo sapiens, PTC stage IV, mean ± SEM, read-out: cell proliferation IC50 - half maximal inhibitory concentration
[3] = system: cancer cells from young patients (어린 환자의 암 세포); experiment: Cell count over 7 days after drug treatment, young-patient papillary thyroid cancer cells; type: cell-based, human; settings: unlike sorafenib, Figs. 4 to 7
[4] = system: FGFR signaling (e.g. PKC, MEK, p-ERK) (FGFR 시그널링); experiment: FGFR signaling in young-patient-derived cancer cells; type: cell-based, human; settings: young-patient-derived cancer cell lines
[5] = system: GSPO1 cells (Thyroid cancer; Papillary); experiment: Cell proliferation IC50 (MTT), patient-derived papillary thyroid cancer cells GSPO1 (first line); type: cell-based; settings: Homo sapiens, adult patient, by order of Table 3, PTC stage IV, mean ± SEM, read-out: cell proliferation IC50 - half maximal inhibitory concentration
[6] = system: GSPY1 cells (Thyroid cancer; Papillary); experiment: Cell proliferation IC50 (MTT), patient-derived papillary thyroid cancer cells GSPY1; type: cell-based; settings: Homo sapiens, PTC stage IV, mean ± SEM, read-out: cell proliferation IC50 - half maximal inhibitory concentration
[7] = system: EMT protein (e.g. Snail, Zeb1) (EMT 단백질); experiment: EMT protein expression in young-patient-derived cancer cells; type: cell-based, human; settings: young-patient-derived cancer cell lines

Structure (SMILES)	IC50 [1] [µM]	IC50 [2] [µM]	inhibition of cancer proliferation (cell number) [3]	inhibition of FGFR signaling [4]	IC50 [5] [µM]	IC50 [6] [µM]	effect on EMT protein expression [7]
CCN(CC)C(=S)SSC(=S)N(CC)CC [Disulfiram, 디에틸카르바모티올설파닐 N,N-디에틸카르바모디티오에이트]	0.21	0.304	어린 환자에게서 더 효과적으로 암의 증식을 억제하는 것을 확인할 수 있었다	FGFR 시그널링(예를 들면, PKC, MEK, p-ERK 등)을 억제	0.22	0.305	EMT 단백질의 발현(예를 들면, Snail, Zeb1 등)을 억제(down-regulated)
CNC(=O)c1cc(Oc2ccc(NC(=O)Nc3ccc(Cl)c(C(F)(F)F)c3)cc2)ccn1 [Sorafenib, 4-[4-[[[[4-클로로-3-(트리플루오르메틸)페닐]아미노]카르복실]아미노]페녹시]-N-메틸-2-피리딘카르복사미드]	10.1	20.2	–	–	9.84	17.2	FGFR을 기반으로 하는 EMT 단백질 발현에 영향을 주지 않는
